The record followed here is patent EP0598011B1, “ECDYSTEROID DEPENDENT REGULATION OF GENES IN MAMMALIAN CELLS” (GENENTECH, INC., priority 1991, dated 1993).

Molecules are shown by their SMILES.

One assay has as its target T1, DHR23α (Drosophila melanogaster, UniProt P34021).
T1 construct: To isolate the full-length DHR23α clones; expressed in transfected cells; host or cells: human 293 cells
T1 sequence (P34021 1-878): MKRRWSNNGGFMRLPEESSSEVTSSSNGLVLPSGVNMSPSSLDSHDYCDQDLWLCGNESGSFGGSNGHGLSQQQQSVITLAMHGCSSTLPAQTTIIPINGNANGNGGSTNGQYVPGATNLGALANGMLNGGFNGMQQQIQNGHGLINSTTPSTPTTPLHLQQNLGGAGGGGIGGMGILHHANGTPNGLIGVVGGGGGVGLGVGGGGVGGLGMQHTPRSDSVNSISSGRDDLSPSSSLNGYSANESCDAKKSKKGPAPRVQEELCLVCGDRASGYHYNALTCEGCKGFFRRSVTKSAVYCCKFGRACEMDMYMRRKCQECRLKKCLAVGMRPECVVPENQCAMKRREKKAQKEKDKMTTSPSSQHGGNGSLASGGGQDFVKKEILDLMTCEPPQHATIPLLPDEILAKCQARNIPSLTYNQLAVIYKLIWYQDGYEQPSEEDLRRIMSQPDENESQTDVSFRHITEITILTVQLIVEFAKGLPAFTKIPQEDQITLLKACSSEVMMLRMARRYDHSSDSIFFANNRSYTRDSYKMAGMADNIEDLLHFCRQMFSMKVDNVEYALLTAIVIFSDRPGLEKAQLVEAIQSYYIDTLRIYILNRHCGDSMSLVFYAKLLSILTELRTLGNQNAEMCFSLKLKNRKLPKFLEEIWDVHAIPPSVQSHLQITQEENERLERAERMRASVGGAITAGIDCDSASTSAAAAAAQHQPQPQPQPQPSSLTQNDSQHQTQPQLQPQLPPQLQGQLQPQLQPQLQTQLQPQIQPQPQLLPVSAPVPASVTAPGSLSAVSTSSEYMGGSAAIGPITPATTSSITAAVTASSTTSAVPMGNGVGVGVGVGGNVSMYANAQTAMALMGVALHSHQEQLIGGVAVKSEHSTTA
T1 sequence (P19793 1-462 partner): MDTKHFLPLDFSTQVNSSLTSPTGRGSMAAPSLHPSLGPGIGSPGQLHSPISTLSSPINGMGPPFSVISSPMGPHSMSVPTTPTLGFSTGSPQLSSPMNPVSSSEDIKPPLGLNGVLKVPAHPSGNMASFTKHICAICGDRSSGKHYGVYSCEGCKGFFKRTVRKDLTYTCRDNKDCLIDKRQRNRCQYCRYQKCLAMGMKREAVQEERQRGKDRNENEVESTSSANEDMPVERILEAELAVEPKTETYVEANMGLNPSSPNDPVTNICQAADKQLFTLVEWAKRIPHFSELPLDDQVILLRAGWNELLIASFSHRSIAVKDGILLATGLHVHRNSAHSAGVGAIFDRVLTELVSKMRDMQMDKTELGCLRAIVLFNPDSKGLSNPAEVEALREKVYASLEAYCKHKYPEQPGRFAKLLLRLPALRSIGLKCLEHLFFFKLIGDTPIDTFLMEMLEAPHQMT
Kind of assay: DHR23α transactivation of EcRE (Ec4M-77CO) CAT reporter in transfected human 293 cells. To be noted: pRSV.DHR23α + pEc4M-77CO (EcRE) CAT reporter, ligand 1 µM, 48 hrs. Format: cell-based. As to the method: Figure. 2. […] Human 293 cells were cotransfected with 2.5 µg of the expression plasmid pRSV.DHR23α or the parental expression plasmid pRSV (Control) and 0.5 µgs of the reporter plasmid pEc4M-77CO (EcRE) or pG4M-77CO (GRE). As a control for transfection efficiency, 0.5 µgs of the control plasmid pRSV.hGH was included in the transfection mixture. After transfection, cells were treated without (-) or with alpha-ecdysone (alpha), 20-OH ecdysone (20-OH), polypodine B (ppB), ponasterone A (ponA) or muristeroine A (murA). CAT extracts were harvested 48 hrs after transfection and assayed. The values were normalized to the expression of hGH and the average values of three independent experiments are shown. The "fold induction" represents the level of expression of the reporter gene in cells incubated with hormone divided by the expression of that reporter gene in extracts from cells incubated in the absence of added ligand.
I determined whether DHR23α could function in mammalian cells treated with ecdysteroids to enhance the transcription of a reporter gene containing EcREs linked to the murine mammary tumor virus (MTV) promoter and chloramphenicol acetyltransferase (CAT) gene. Human 293 cells were cotransfected with an RSV-based expression vector that encodes DHR23a and the reporter gene Ec4M-77CO that contains 4 copies of an ecdysone response element (EcRE) from the Drosophila HSP27 promoter (G. Riddihough and H. R. B. Pelham, EMBO J. 6, 3729 [1987]) linked to an MTV promoter-CAT construct.
Human 293 cells were cotransfected with 2.5 µg of the expression plasmid pRSV.DHR23α or the parental expression plasmid pRSV (Control) and 0.5 µgs of the reporter plasmid pEc4M-77CO (EcRE) or pG4M-77CO (GRE). As a control for transfection efficiency, 0.5 µgs of the control plasmid pRSV.hGH was included in the transfection mixture. After transfection, cells were treated without (-) or with alpha-ecdysone (alpha), 20-OH ecdysone (20-OH), polypodine B (ppB), ponasterone A (ponA) or muristeroine A (murA). All candidate ligands were added at a concentration of 1 µM. CAT extracts were harvested 48 hrs after transfection, and assays were performed as described (D. R. Cavener, Nucl. Acids Res. 15, 1353-1361 [1987]). The values were normalized to the expression of hGH and the average values of three independent experiments are shown in Figure 2. The "fold induction" represents the level of expression of the reporter gene in cells incubated with hormone divided by the expression of that reporter gene in extracts from cells incubated in the absence of added ligand.
Cells were transfected with the DHR23α expression vector and Ec4M-77CO reporter gene and treated without (-) or with the following hormones (1 µM): muristerone A (mur A) dexamethasone (Dex) 17β-estradiol (E2), aldosterone (Aldo), corticosterone (Cort) hydroxycorticosterone (OH-Cort) thyroid hormone (T3), promegestone (Promeg) or 1,25-dihydroxy vitamin D3 (VD3). Reporter gene activity was determined as described above for Figure 2.

Another assay has as its target T2, G"E"Ec (UniProt P06536+P34021, G458E/S459G).
T2 construct: expressed in transfected cells
The assay is described as follows: Induction of ERE reporter E4M-77CO by chimeric receptor G"E"Ec. Format: cell-based. As to conditions: cells incubated 48 hrs. As for the experimental part:
Figure. 6. Induction of […] (EREs) by chimeric receptors. Cells were transfected with expression plasmids encoding eiher DHR23α (EcEcEc), G"E"G or G"E"Ec and E4M-77CO, that contains 4 EREs fused to the MTV promoter. Cells were incubated for 48 hrs with or wihout (-) or with muristerone A (M) or dexamethasone (D).
I then determined if a DHR23 fusion protein could regulate genes normally responsive to estrogens.
Cells were transfected with expression plasmids encoding either DHR23α (EcEcEc), G"E"G or G"E"Ec and E4M-77CO, that contains 4 EREs fused to the MTV promoter. Cells were incubated for 48 hrs with or without (-) or with muristerone A (M) or dexamethasone (D). Reporter gene activity was determined as described above for Figure 2.

T2 sequence (P06536+P34021 fused P06536:G458E/P06536:S459G, one chain of several): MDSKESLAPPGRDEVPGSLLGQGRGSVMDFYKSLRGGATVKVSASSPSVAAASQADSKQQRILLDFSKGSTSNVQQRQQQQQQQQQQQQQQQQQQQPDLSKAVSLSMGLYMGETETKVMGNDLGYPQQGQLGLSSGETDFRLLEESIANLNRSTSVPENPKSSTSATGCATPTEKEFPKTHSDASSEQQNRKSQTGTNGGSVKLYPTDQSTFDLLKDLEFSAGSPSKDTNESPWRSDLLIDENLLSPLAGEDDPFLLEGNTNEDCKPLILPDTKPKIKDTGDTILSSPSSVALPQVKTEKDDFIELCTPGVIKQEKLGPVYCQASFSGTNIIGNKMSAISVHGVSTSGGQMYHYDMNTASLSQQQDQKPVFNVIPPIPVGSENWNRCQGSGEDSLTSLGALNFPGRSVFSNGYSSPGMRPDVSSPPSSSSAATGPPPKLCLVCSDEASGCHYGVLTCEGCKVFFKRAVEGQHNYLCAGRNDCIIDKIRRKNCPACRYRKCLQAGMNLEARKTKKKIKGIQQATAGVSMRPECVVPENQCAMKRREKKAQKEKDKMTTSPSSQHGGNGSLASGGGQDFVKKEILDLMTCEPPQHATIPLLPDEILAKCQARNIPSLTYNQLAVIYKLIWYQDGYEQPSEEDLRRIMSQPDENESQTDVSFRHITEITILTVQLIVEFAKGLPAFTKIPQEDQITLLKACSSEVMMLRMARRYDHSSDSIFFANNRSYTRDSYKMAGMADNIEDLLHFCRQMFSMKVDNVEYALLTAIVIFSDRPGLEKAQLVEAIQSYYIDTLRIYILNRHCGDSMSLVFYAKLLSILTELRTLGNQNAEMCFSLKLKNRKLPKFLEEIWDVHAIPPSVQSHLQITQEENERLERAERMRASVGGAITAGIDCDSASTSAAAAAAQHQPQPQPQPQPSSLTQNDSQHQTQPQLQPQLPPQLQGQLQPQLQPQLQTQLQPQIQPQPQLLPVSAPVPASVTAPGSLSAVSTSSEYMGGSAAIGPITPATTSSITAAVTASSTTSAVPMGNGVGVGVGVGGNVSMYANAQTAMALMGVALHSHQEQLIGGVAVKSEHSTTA

In the case of `CC(C)CCC(O)[C@](C)(O)[C@H]1CC[C@@]2(O)C3=CC(=O)C4(O)CC(O)C(O)C[C@]4(C)[C@H]3C(O)C[C@]12C` (stereo partly drawn) [muristerone A, 2,3,5,11,14,20,22-Heptahydroxy-7-cholesten-6-one], the “agonist for DHR23α in mammalian cells (expression of the reporter gene)” value is recorded as “markedly increased” on DHR23α and “strong agonist” on DHR23α (listed as muristerone). In addition, the “regulation of ERE containing reporter gene E4M-77CO” value on G"E"Ec is reported as “regulates the ERE containing reporter gene E4M-77CO in a muristerone-dependent fashion”.
